Results taken from patent US8962860B2, “Inhibitors of glutaminyl cyclase” (Probiodrug AG, priority 2008, dated 2015).

Legend:
[1] = Log BB screen: brain compound level and log BB in mice; type: in vivo; settings: single i.v. injection; for concentration at 1 h: iv, 10 mg/ml, mouse, brain, read-out: Brain concentration 1 h after application
Experimental: Screening for brain compound level and log BB was done in mice. Compound was applied by a single i.v. injection. […] At least 3 animals were analyzed per compound. Animals were sacrificed 1 h after compound application and blood was collected by heart puncture. Serum was prepared from blood. Animals were perfused with PBS and brains were collected. Compound level in serum and brain were determined by HPLC-MS/MS analysis. Log BB were calculated as follows: [formula]

[2] = tested on: pGlu-Aβ3-42 in transgenic (tg) mice, which overexpress human AβQ3-42; assay: Treatment of Aβ-transgenic mice, pGlu-Aβ ELISA of brain homogenates; type: in vivo
Experimental: 6 (1-(1H-benzo[d]imidazol-5-yl)-5-(4-propoxyphenyl)imidazolidine-2,4-dion). Example compound 6 was implemented into the chow and the transgenic animals were treated orally. The treatment is specified in the table below. The mice used in this study were produced as described in WO 2009/034158.
Following treatment, tg mice were sacrificed, the brains were removed from the skull, flushed with ice cold saline and placed shortly on filter paper. Brain tissues without cerebellum were homogenized (Dounce homogenizer) in 2.5 ml 2% SDS in distilled water (SDS wash fraction), sonificated and centrifuged at 75,500×g for 1 hour at 4° C. The supernatant was removed and the pellet resuspended in 0.5 ml 70% formic acid (formic acid fraction) and neutralized by addition of 9.5 ml 1 M Tris solution. The formic acid (FA) is considered as the homogenate containing the highly insoluble Aβ peptides, including pGlu-Aβ species (Kawarabayashi et al., (2001), J. Neurosci. 21, 372-381). Aβx-40, Aβx-42 and Aβ3(pE)-42 specific sandwich ELISAs (all from IBL, Hamburg, Germany) were performed according to the manufacturer's manual. Samples were diluted to fit within the range of the standard curve using EIA buffer, which is supplied with the ELISA kits.

| Compound | concentration at 1 h [1] | logBB mouse 1 h after i.v. injection [1] | pGlu-Aβ3-42 concentration in formic acid extracts ([2]; tg mice treated orally via chow (4.8 g/kg) for two months, vs placebo) | pGlu-Aβ3-42 concentration in formic acid extracts, brainstem ([2]; tg mice treated orally via chow for two months, brainstem) |
| --- | --- | --- | --- | --- |
| O=C1NC(=O)N(c2ccc3[nH]cnc3c2)C1c1ccc2nsnc2c1 (stereo not shown) [Example 1, 5-(benzo[c][1,2,5]thiadiazol-6-yl)-1-(1H-benzo[d]imidazol-5-yl)imidazolidine-2,4-dione] | 118 ng/g | −0.67 |  |  |
| Cc1ccc(O)c(C2C(=O)NC(=O)N2c2ccc3[nH]cnc3c2)c1 (stereo not shown) [Example 3, 1-(1H-benzo[d]imidazol-5-yl)-5-(2-hydroxy-5-methylphenyl)imidazolidine-2,4-dione] | 17.1 ng/g | −1.42 |  |  |
| CCCOc1ccc(C2C(=O)NC(=O)N2c2ccc3[nH]cnc3c2)cc1 (racemic) [Example 6, 1-(1H-benzo[d]imidazol-5-yl)-5-(4-propoxyphenyl)imidazolidine-2,4-dione] | 126 ng/g | −1.6 | significant reduction | below the limit of detection |

Now from value to molecule, other results behind:

| concentration at 1 h [1] | logBB mouse 1 h after i.v. injection [1] | Compound | pGlu-Aβ3-42 concentration in formic acid extracts ([2]; tg mice treated orally via chow (4.8 g/kg) for two months, vs placebo) | pGlu-Aβ3-42 concentration in formic acid extracts, brainstem ([2]; tg mice treated orally via chow for two months, brainstem) |
| --- | --- | --- | --- | --- |
| 11.7 ng/g | −1.2 | O=C1NC(=O)C2(Cc3ccccc3C2)N1c1ccc2[nH]cnc2c1 [Example 32, 3-(1H-benzimidazol-5-yl)-1,3′-dihydro-2H,5H-spiro[imidazolidine-4,2′-indene]-2,5-dione] |  |  |
| 31.4 ng/g | −1.4 | O=C1NC(=O)N(c2ccc3[nH]cnc3c2)C1c1ccc(Cl)cc1 (stereo not shown) [Example 13, 1-(1H-benzo[d]imidazol-5-yl)-5-(4-chlorophenyl)imidazolidine-2,4-dione] |  |  |
| 20.2 ng/g | −1.6 | O=C1NC(=O)N(c2ccc3[nH]cnc3c2)C1c1ccccc1Cl (stereo not shown) [Example 14, 1-(1H-benzo[d]imidazol-5-yl)-5-(2-chlorophenyl)imidazolidine-2,4-dione] |  |  |
| 38.2 ng/g | −2.5 | O=C1NC(=O)N(c2ccc3[nH]cnc3c2)C1c1ccc(Cl)c(C(F)(F)F)c1 (stereo not shown) [Example 7, 1-(1H-benzo[d]imidazol-5-yl)-5-(4-chloro-3-(trifluoromethyl)phenyl)imidazolidine-2,4-dione] |  |  |
